Data as given in the supplement of paper PMC5321775.
± gives the standard deviation of the averaged measurements or the uncertainty stated by the source.

Legend:
[1] = system: Caenorhabditis briggsae HK104; test: Kaplan-Meier median lifespan of treated cohort (days); higher = longer lifespan; conditions: exposure: chronic from day 1 of adulthood, single dose per compound (concentration not stated in sheet)
Experimental: (§1)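 Caenorhabditis lifespan assay (CITP). Synchronised hermaphrodites were moved on the first day of adulthood onto 35 mm NGM plates with live E. coli OP50-1 and 51 uM FUdR, with the compound spread on the plate. Worms were kept at 20 C and scored for survival.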

[2] = system: Caenorhabditis elegans N2; test: as above; conditions: exposure: chronic from day 1 of adulthood, single dose per compound (concentration not stated in sheet)
Experimental: as §1

[3] = system: Caenorhabditis elegans MY16; test: as above; conditions: exposure: chronic from day 1 of adulthood, single dose per compound (concentration not stated in sheet)
Experimental: as §1

[4] = system: Caenorhabditis briggsae JU1348; test: as above; conditions: exposure: chronic from day 1 of adulthood, single dose per compound (concentration not stated in sheet)
Experimental: as §1

[5] = system: Caenorhabditis briggsae AF16; test: as above; conditions: exposure: chronic from day 1 of adulthood, single dose per compound (concentration not stated in sheet)
Experimental: as §1

[6] = system: Caenorhabditis elegans JU775; test: as above; conditions: exposure: chronic from day 1 of adulthood, single dose per compound (concentration not stated in sheet)
Experimental: as §1

[7] = system: Caenorhabditis briggsae HK104; test: Kaplan-Meier median lifespan of treated plate (days); higher = longer lifespan; conditions: exposure: chronic from day 1 of adulthood
Experimental: (§2)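 Dose-response lifespan assays in three C. briggsae strains (AF16, HK104, JU1348), run per plate (35-40 animals) on NGM with live OP50-1 and 51 uM FUdR at 20 C. Compound was added to the plate surface and worms were exposed from the first day of adulthood.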

[8] = system: Caenorhabditis briggsae JU1348; test: as above; conditions: exposure: chronic from day 1 of adulthood
Experimental: as §2

[9] = system: Caenorhabditis briggsae AF16; test: as above; conditions: exposure: chronic from day 1 of adulthood
Experimental: as §2

[10] = system: Caenorhabditis briggsae HK104; test: mean adult lifespan of treated plate (days); higher = longer lifespan; conditions: exposure: chronic from day 1 of adulthood
Experimental: as §2

[11] = system: Caenorhabditis briggsae JU1348; test: as above; conditions: exposure: chronic from day 1 of adulthood
Experimental: as §2

[12] = system: Caenorhabditis briggsae AF16; test: as above; conditions: exposure: chronic from day 1 of adulthood
Experimental: as §2

[13] = system: Caenorhabditis briggsae HK104; test: mean adult lifespan of treated cohort (days); higher = longer lifespan; conditions: exposure: chronic from day 1 of adulthood, single dose per compound (concentration not stated in sheet)
Experimental: as §1

[14] = system: Caenorhabditis elegans N2; test: as above; conditions: exposure: chronic from day 1 of adulthood, single dose per compound (concentration not stated in sheet)
Experimental: as §1

[15] = system: Caenorhabditis elegans MY16; test: as above; conditions: exposure: chronic from day 1 of adulthood, single dose per compound (concentration not stated in sheet)
Experimental: as §1

[16] = system: Caenorhabditis briggsae JU1348; test: as above; conditions: exposure: chronic from day 1 of adulthood, single dose per compound (concentration not stated in sheet)
Experimental: as §1

[17] = system: Caenorhabditis briggsae AF16; test: as above; conditions: exposure: chronic from day 1 of adulthood, single dose per compound (concentration not stated in sheet)
Experimental: as §1

[18] = system: Caenorhabditis elegans JU775; test: as above; conditions: exposure: chronic from day 1 of adulthood, single dose per compound (concentration not stated in sheet)
Experimental: as §1

Q: What does the source list for O=C(O)CCC(=O)C(=O)O [alpha-ketoglutaric acid]?
A: Kaplan-Meier median lifespan [1]: 34.7 ± 2.5; Kaplan-Meier median lifespan [2]: 21.9 ± 1.6; Kaplan-Meier median lifespan [3]: 25.3 ± 1.4; Kaplan-Meier median lifespan [4]: 25.9 ± 2.3; Kaplan-Meier median lifespan [5]: 26.3 ± 1.7; Kaplan-Meier median lifespan [6]: 25.6 ± 1.7; Kaplan-Meier median lifespan ([7]; 100 µM): 36 ± 4.6; Kaplan-Meier median lifespan ([7]; 500 µM): 37.2 ± 4; Kaplan-Meier median lifespan ([7]; 800 µM): 36.3 ± 4.7; Kaplan-Meier median lifespan ([7]; 1000 µM): 37.2 ± 6.3; Kaplan-Meier median lifespan ([7]; 4000 µM): 35 ± 5; Kaplan-Meier median lifespan ([7]; 16000 µM): 23.8 ± 2.1; Kaplan-Meier median lifespan ([7]; 40000 µM): 25.8 ± 2.1; Kaplan-Meier median lifespan ([8]; 100 µM): 23.3 ± 2.5; Kaplan-Meier median lifespan ([8]; 500 µM): 25.3 ± 2.5; Kaplan-Meier median lifespan ([8]; 800 µM): 23 ± 4.2; Kaplan-Meier median lifespan ([8]; 1000 µM): 28 ± 3; Kaplan-Meier median lifespan ([8]; 4000 µM): 22.8 ± 5.2; Kaplan-Meier median lifespan ([8]; 16000 µM): 12.5 ± 1; Kaplan-Meier median lifespan ([8]; 40000 µM): 11 ± 1.1; Kaplan-Meier median lifespan ([9]; 100 µM): 26.5 ± 1.7; Kaplan-Meier median lifespan ([9]; 500 µM): 25 ± 2.2; Kaplan-Meier median lifespan ([9]; 800 µM): 26; Kaplan-Meier median lifespan ([9]; 1000 µM): 28 ± 2.5; Kaplan-Meier median lifespan ([9]; 4000 µM): 25.9 ± 5.6; Kaplan-Meier median lifespan ([9]; 16000 µM): 19 ± 1.6; Kaplan-Meier median lifespan ([9]; 40000 µM): 18.5 ± 1.9; mean adult lifespan of treated plate ([10]; 100 µM): 33.8 ± 1.2; mean adult lifespan of treated plate ([10]; 500 µM): 35.3 ± 1.6; mean adult lifespan of treated plate ([10]; 800 µM): 33.7 ± 1.4; mean adult lifespan of treated plate ([10]; 1000 µM): 36.7 ± 1.3; mean adult lifespan of treated plate ([10]; 4000 µM): 33 ± 1.4; mean adult lifespan of treated plate ([10]; 16000 µM): 23.6 ± 1.1; mean adult lifespan of treated plate ([10]; 40000 µM): 24.7 ± 1.1; mean adult lifespan of treated plate ([11]; 100 µM): 23.3 ± 1.4; mean adult lifespan of treated plate ([11]; 500 µM): 23.5 ± 1.1; mean adult lifespan of treated plate ([11]; 800 µM): 22.7 ± 1.1; mean adult lifespan of treated plate ([11]; 1000 µM): 25.5 ± 1.3; mean adult lifespan of treated plate ([11]; 4000 µM): 24.6 ± 1.9; mean adult lifespan of treated plate ([11]; 16000 µM): 14.7 ± 1.2; mean adult lifespan of treated plate ([11]; 40000 µM): 11.7 ± 0.54; mean adult lifespan of treated plate ([12]; 100 µM): 27 ± 1.5; mean adult lifespan of treated plate ([12]; 500 µM): 21.7 ± 1.1; mean adult lifespan of treated plate ([12]; 800 µM): 24.9 ± 0.84; mean adult lifespan of treated plate ([12]; 1000 µM): 27.5 ± 1.4; mean adult lifespan of treated plate ([12]; 4000 µM): 26.5 ± 1.3; mean adult lifespan of treated plate ([12]; 16000 µM): 20.2 ± 1.1; mean adult lifespan of treated plate ([12]; 40000 µM): 20.3 ± 1; mean adult lifespan of treated cohort [13]: 33.8 ± 0.71; mean adult lifespan of treated cohort [14]: 21.4 ± 0.45; mean adult lifespan of treated cohort [15]: 24.9 ± 0.53; mean adult lifespan of treated cohort [16]: 24.6 ± 0.77; mean adult lifespan of treated cohort [17]: 25.9 ± 0.89; mean adult lifespan of treated cohort [18]: 24.6 ± 0.58

Q: How did the Kaplan-Meier median lifespan [1] turn out when CCCOC(=O)c1cc(O)c(O)c(O)c1 [propyl gallate] was run?
A: 35.5 ± 3

Q: What about the Kaplan-Meier median lifespan [2] of the same molecule?
A: 18.3 ± 0.82

Q: What about the Kaplan-Meier median lifespan [3] of the same molecule?
A: 18.3 ± 3.9

Q: What about the Kaplan-Meier median lifespan [4] of the same molecule?
A: 24.7 ± 4

Q: What about the Kaplan-Meier median lifespan [5] of the same molecule?
A: 24.7 ± 2

Q: And the Kaplan-Meier median lifespan [6]?
A: 22.3 ± 2

Q: And the Kaplan-Meier median lifespan ([7]; 20 µM)?
A: 35.4 ± 5.3

Q: What about the Kaplan-Meier median lifespan ([7]; 100 µM) of the same molecule?
A: 36.8 ± 3.5

Q: And the Kaplan-Meier median lifespan ([7]; 200 µM)?
A: 35

Q: And the Kaplan-Meier median lifespan ([7]; 400 µM)?
A: 35.5 ± 3.6

Q: What about the Kaplan-Meier median lifespan ([7]; 4000 µM) of the same molecule?
A: 22.2 ± 6.4

Q: And the Kaplan-Meier median lifespan ([8]; 20 µM)?
A: 24.6 ± 4.2

Q: What about the Kaplan-Meier median lifespan ([8]; 100 µM) of the same molecule?
A: 27.3 ± 4.3

Q: What about the Kaplan-Meier median lifespan ([8]; 200 µM) of the same molecule?
A: 21

Q: What about the Kaplan-Meier median lifespan ([8]; 400 µM) of the same molecule?
A: 24.1 ± 4.8

Q: And the Kaplan-Meier median lifespan ([8]; 4000 µM)?
A: 19.4 ± 2.1

Q: What about the Kaplan-Meier median lifespan ([9]; 20 µM) of the same molecule?
A: 26.4 ± 2.5

Q: What about the Kaplan-Meier median lifespan ([9]; 100 µM) of the same molecule?
A: 26.6 ± 2.9

Q: And the Kaplan-Meier median lifespan ([9]; 200 µM)?
A: 28.3 ± 0.58

Q: And the Kaplan-Meier median lifespan ([9]; 400 µM)?
A: 26.6 ± 2.4

Q: And the Kaplan-Meier median lifespan ([9]; 4000 µM)?
A: 17.6 ± 4.5

Q: What about the “mean adult lifespan of treated plate” value ([10]; 20 µM) of the same molecule?
A: 33.5 ± 1.6

Q: And the “mean adult lifespan of treated plate” value ([10]; 100 µM)?
A: 35 ± 1.6

Q: What about the “mean adult lifespan of treated plate” value ([10]; 200 µM) of the same molecule?
A: 33.9 ± 1.3

Q: What about the “mean adult lifespan of treated plate” value ([10]; 400 µM) of the same molecule?
A: 35.1 ± 1.4

Q: And the “mean adult lifespan of treated plate” value ([10]; 4000 µM)?
A: 21.9 ± 1.4

Q: What about the “mean adult lifespan of treated plate” value ([11]; 20 µM) of the same molecule?
A: 23.8 ± 1.1

Q: What about the “mean adult lifespan of treated plate” value ([11]; 100 µM) of the same molecule?
A: 26 ± 1.4

Q: And the “mean adult lifespan of treated plate” value ([11]; 200 µM)?
A: 22.8 ± 1.1

Q: What about the “mean adult lifespan of treated plate” value ([11]; 400 µM) of the same molecule?
A: 24.7 ± 1.2

Q: What about the “mean adult lifespan of treated plate” value ([11]; 4000 µM) of the same molecule?
A: 19.5 ± 0.94

Q: And the “mean adult lifespan of treated plate” value ([12]; 20 µM)?
A: 26.6 ± 1.5

Q: What about the “mean adult lifespan of treated plate” value ([12]; 100 µM) of the same molecule?
A: 25 ± 1.5

Q: And the “mean adult lifespan of treated plate” value ([12]; 200 µM)?
A: 27.2 ± 1.1

Q: And the “mean adult lifespan of treated plate” value ([12]; 400 µM)?
A: 25.2 ± 1.4

Q: And the “mean adult lifespan of treated plate” value ([12]; 4000 µM)?
A: 18 ± 1.1

Q: What about the “mean adult lifespan of treated cohort” value [13] of the same molecule?
A: 33.4 ± 1

Q: What about the “mean adult lifespan of treated cohort” value [14] of the same molecule?
A: 19 ± 0.4

Q: And the “mean adult lifespan of treated cohort” value [15]?
A: 18.3 ± 0.57

Q: And the “mean adult lifespan of treated cohort” value [16]?
A: 24.5 ± 0.75

Q: What about the “mean adult lifespan of treated cohort” value [17] of the same molecule?
A: 24.8 ± 0.89

Q: What about the “mean adult lifespan of treated cohort” value [18] of the same molecule?
A: 21.5 ± 0.74

Q: Which results are given for Oc1ccc(/C=C/c2cc(O)cc(O)c2)cc1 [resveratrol]?
A: Kaplan-Meier median lifespan [1]: 35.8 ± 3.4; Kaplan-Meier median lifespan [2]: 19.2 ± 1.2; Kaplan-Meier median lifespan [3]: 18.3 ± 1.5; Kaplan-Meier median lifespan [4]: 25.5 ± 1.6; Kaplan-Meier median lifespan [5]: 24.2 ± 1.5; Kaplan-Meier median lifespan [6]: 24.2 ± 1.7; Kaplan-Meier median lifespan ([7]; 10 µM): 36.8 ± 3.5; Kaplan-Meier median lifespan ([7]; 50 µM): 36.2 ± 3.3; Kaplan-Meier median lifespan ([7]; 200 µM): 36.9 ± 3; Kaplan-Meier median lifespan ([7]; 1000 µM): 35.6 ± 3.6; Kaplan-Meier median lifespan ([8]; 10 µM): 25.7 ± 4.7; Kaplan-Meier median lifespan ([8]; 50 µM): 25.7 ± 4.7; Kaplan-Meier median lifespan ([8]; 200 µM): 23.2 ± 3.4; Kaplan-Meier median lifespan ([8]; 1000 µM): 22.6 ± 2.6; Kaplan-Meier median lifespan ([9]; 10 µM): 26.1 ± 1.4; Kaplan-Meier median lifespan ([9]; 50 µM): 27.8 ± 2.7; Kaplan-Meier median lifespan ([9]; 200 µM): 26.3 ± 1.8; Kaplan-Meier median lifespan ([9]; 1000 µM): 28.1 ± 2.2; mean adult lifespan of treated plate ([10]; 10 µM): 35.9 ± 1.3; mean adult lifespan of treated plate ([10]; 50 µM): 33 ± 1.3; mean adult lifespan of treated plate ([10]; 200 µM): 35.5 ± 1.5; mean adult lifespan of treated plate ([10]; 1000 µM): 34.7 ± 1.3; mean adult lifespan of treated plate ([11]; 10 µM): 25.9 ± 1.5; mean adult lifespan of treated plate ([11]; 50 µM): 25.7 ± 1.1; mean adult lifespan of treated plate ([11]; 200 µM): 22.9 ± 1.1; mean adult lifespan of treated plate ([11]; 1000 µM): 23.6 ± 1; mean adult lifespan of treated plate ([12]; 10 µM): 26.1 ± 1.4; mean adult lifespan of treated plate ([12]; 50 µM): 26.9 ± 1.2; mean adult lifespan of treated plate ([12]; 200 µM): 26.9 ± 1.6; mean adult lifespan of treated plate ([12]; 1000 µM): 27.6 ± 1.3; mean adult lifespan of treated cohort [13]: 33.5 ± 1; mean adult lifespan of treated cohort [14]: 19.2 ± 0.46; mean adult lifespan of treated cohort [15]: 18.3 ± 0.59; mean adult lifespan of treated cohort [16]: 25.5 ± 0.79; mean adult lifespan of treated cohort [17]: 24.6 ± 0.91; mean adult lifespan of treated cohort [18]: 22.9 ± 0.69
